Data from ChEMBL document CHEMBL1144812, “Small molecules with structural similarities to siderophores as novel antimicrobials against Mycobacterium tuberculosis and Yersinia pestis” (Bioorg Med Chem Lett, 2008).

Columns and labels:
[1] = molecular target: T1, AMP-binding enzyme family protein (Yersinia pestis, UniProt Q56950); experiment: Inhibition of Yersinia pestis YbtE assessed as incorporation of [3H]salicyl group to HMWP2 protein
T1 sequence (Q56950 whole entry): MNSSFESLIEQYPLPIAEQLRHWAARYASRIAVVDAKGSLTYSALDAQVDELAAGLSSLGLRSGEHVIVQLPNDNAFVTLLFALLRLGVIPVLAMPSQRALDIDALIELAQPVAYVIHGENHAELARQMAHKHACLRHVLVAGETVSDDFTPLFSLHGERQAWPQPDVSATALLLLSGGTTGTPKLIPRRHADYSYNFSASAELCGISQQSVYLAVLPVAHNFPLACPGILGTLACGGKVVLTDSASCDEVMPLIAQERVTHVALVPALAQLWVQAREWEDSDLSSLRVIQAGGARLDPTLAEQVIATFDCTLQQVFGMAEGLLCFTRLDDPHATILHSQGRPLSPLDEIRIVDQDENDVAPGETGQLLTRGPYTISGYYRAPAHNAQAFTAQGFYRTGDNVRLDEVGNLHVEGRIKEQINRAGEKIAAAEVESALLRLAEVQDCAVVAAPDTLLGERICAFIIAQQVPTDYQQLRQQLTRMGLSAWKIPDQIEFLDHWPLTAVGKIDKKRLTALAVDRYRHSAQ

[2] = test system: Mycobacterium tuberculosis; experiment: Antimycobacterial activity against Mycobacterium tuberculosis H37Rv in presence of iron rich GAST-D medium; assay type: functional, organism-based
[3] = test system: Mycobacterium tuberculosis; experiment: Antimycobacterial activity against Mycobacterium tuberculosis H37Rv in presence of iron deficient GAST-D medium; assay type: functional, organism-based
[4] = test system: Mycobacterium tuberculosis; experiment: Ratio of MIC90 for Mycobacterium tuberculosis H37Rv in iron rich GAST-D medium to MIC90 for Mycobacterium tuberculosis H37Rv in presence of iron limiting GAST-D medium; assay type: functional
[5] = test system: Yersinia pestis; experiment: Antimicrobial activity against Yersinia pestis KIM6-2082.1+ in presence of iron rich PMH-D medium; assay type: functional, organism-based
[6] = test system: Yersinia pestis; experiment: Antimicrobial activity against Yersinia pestis KIM6-2082.1+ in presence of iron limiting PMH-D medium; assay type: functional, organism-based
[7] = Cytotoxicity against human HeLa cells after 24 hrs; assay type: cell-based; details: read-out: CD50
[8] = test system: Yersinia pestis; experiment: Ratio of MIC90 for Yersinia pestis KIM6-2082.1+ in iron rich PMH-D medium to MIC90 for Yersinia pestis KIM6-2082.1+ in presence of iron limiting PMH-D medium; assay type: functional

Row | SMILES | IC50 [1] [µM] | IC50 [2] [µM] | MIC90 [2] [µM] | IC50 [3] [µM] | MIC90 [3] [µM] | Ratio [4] | IC50 [5] [µM] | MIC90 [5] [µM] | IC50 [6] [µM] | MIC90 [6] [µM] | CC50 at 24 h [7] [µM] | Ratio [8]
1 | Oc1ccccc1[C@@H]1CC(c2ccccc2)=NN1C(=S)Nc1ccccc1 | > 12.5 | 42 | 167 | 24 | 125 | 1 | > 19 | > 19 | > 19 | > 19 | 19 | 
2 | COc1ccc(NC(=S)N2N=C(c3ccccc3O)C[C@H]2c2ccc(O)c(OC)c2)cc1 | 0.5 | ≥ 500 | ≥ 500 | ≥ 500 | ≥ 500 |  | > 150 | > 150 | 0.6 | 2 | 25 | >75
3 | CO[C@H]1/C=C/O[C@@]2(C)Oc3c(C)c(O)c4c(O)c(c(/C=N/N5CCN(C)CC5)c(O)c4c3C2=O)NC(=O)/C(C)=C\C=C\[C@H](C)[C@H](O)[C@@H](C)[C@@H](O)[C@@H](C)[C@H](OC(C)=O)[C@@H]1C [RIFAMPIN] |  |  | 0.008 |  | 0.008 | 1 |  |  |  |  | 190 | 
4 | COc1ccccc1NC(=S)N1N=C(c2ccccc2O)C[C@H]1c1ccc(O)cc1 | 0.3 | ≥ 500 | ≥ 500 | ≥ 500 | ≥ 500 |  | > 19 | > 19 | 2 | 6 | 1 | >3
5 | COc1cc([C@@H]2CC(c3ccccc3O)=NN2C(=S)Nc2ccc(C)cc2)ccc1O | 0.5 | ≥ 500 | ≥ 500 | ≥ 500 | ≥ 500 |  | > 19 | > 19 | 1 | 2 | 16 | >10
6 | Oc1ccccc1C1=NN(C(=S)Nc2ccccc2)[C@H](c2ccccc2Cl)C1 | 2 | ≥ 500 | ≥ 500 | ≥ 500 | ≥ 500 |  | > 5 | > 5 | > 5 | > 5 | 5 | 
7 | COc1ccccc1NC(=S)N1N=C(c2ccccc2O)C[C@H]1c1ccccc1O | 0.8 | ≥ 500 | ≥ 500 | ≥ 500 | ≥ 500 |  | > 5 | > 5 | 2 | 5 | 15 | >1
8 | Nc1ncnc2c1ncn2[C@@H]1O[C@H](COS(=O)(=O)NC(=O)c2ccccc2O)[C@@H](O)[C@H]1O | 0.007 |  |  |  |  |  |  |  |  |  |  | 
9 | Cc1ccc(NC(=S)N2N=C(c3ccccc3O)C[C@H]2c2ccc(O)cc2)cc1 | 0.4 | ≥ 500 | ≥ 500 | ≥ 500 | ≥ 500 |  | > 9 | > 9 | 0.9 | 3 | 3 | >3
10 | COc1ccccc1[C@@H]1CC(c2ccccc2O)=NN1C(=S)Nc1ccccc1 | 3 | > 250 | > 250 | > 250 | > 250 |  | > 5 | > 5 | 0.4 | > 5 | 6 | 
11 | COc1cc([C@@H]2CC(c3ccccc3O)=NN2C(=S)Nc2ccccc2)ccc1O | 0.2 | ≥ 500 | ≥ 500 | ≥ 500 | ≥ 500 |  | > 150 | > 150 | 2 | 5 | 13 | >30
12 | Oc1ccccc1C1=NN(C(=S)Nc2ccccc2)[C@H](c2cccs2)C1 | 2 |  |  |  |  |  |  |  |  |  |  | 
13 | COc1ccc([C@@H]2CC(c3ccccc3O)=NN2C(=S)Nc2ccccc2)cc1 | 1 | ≥ 500 | ≥ 500 | ≥ 500 | ≥ 500 |  | > 19 | > 19 | 0.7 | > 19 | 5 | 
14 | Oc1ccc([C@@H]2CC(c3ccc(O)cc3O)=NN2C(=S)Nc2ccccc2)cc1 | 1 | > 250 | > 250 | 167 | > 250 |  | > 150 | > 150 | 1 | 2 | 63 | >75
15 | COc1ccc(NC(=S)N2N=C(c3ccc(O)cc3O)C[C@H]2c2ccc(O)c(OC)c2)cc1 | 1 | 167 | > 250 | 125 | > 250 |  | > 9 | > 9 | 0.2 | 1 | 31 | >9
16 | Oc1ccccc1C1=NN(C(=S)Nc2ccccc2)[C@H](c2ccc(Cl)cc2)C1 | 0.7 | ≥ 500 | ≥ 500 | ≥ 500 | ≥ 500 |  | > 5 | > 5 | 0.5 | 1 | 5 | >5
17 | Oc1ccc([C@@H]2CC(c3ccccc3)=NN2C(=S)Nc2ccccc2)cc1 | > 12.5 | ≥ 500 | ≥ 500 | ≥ 500 | ≥ 500 |  | > 38 | > 38 | > 38 | > 38 | 29 | 
18 | COc1ccc(NC(=S)N2N=C(c3ccccc3O)C[C@H]2c2ccc(O)cc2)cc1 | 7 | ≥ 500 | ≥ 500 | ≥ 500 | ≥ 500 |  | > 19 | > 19 | 0.7 | 2 | 4 | >10
19 | COc1cc([C@@H]2CC(c3ccccc3O)=NN2C(=S)Nc2ccccc2OC)ccc1O | 0.8 | ≥ 500 | ≥ 500 | ≥ 500 | ≥ 500 |  | > 9 | > 9 | 1 | 6 | 11 | >2
20 | Oc1ccccc1C1=NN(C(=S)Nc2ccccc2)[C@H](c2ccccc2)C1 | 0.5 | ≥ 500 | ≥ 500 | ≥ 500 | ≥ 500 |  | > 9 | > 9 | > 9 | > 9 | 3 | 
21 | CN[C@@H]1[C@H](O[C@H]2[C@H](O[C@H]3[C@H](O)[C@@H](O)[C@H](N=C(N)N)[C@@H](O)[C@@H]3N=C(N)N)O[C@@H](C)[C@]2(O)C=O)O[C@@H](CO)[C@H](O)[C@H]1O (stereo in doubt) [STREPTOMYCIN] |  |  |  |  |  |  |  | 0.2 |  | 0.2 | > 500 | 1
22 | C[C@@H]1C[C@@H]([C@H](O)CC2CC(=O)NC(=O)C2)C(=O)[C@@H](C)C1 [CYCLOHEXIMIDE] |  |  |  |  |  |  |  |  |  |  | 0.1 | 
